{"source": "patent US20220370385A1", "about": "“COMPOSITIONS FOR USE IN INHIBITING SRC KINASE AND TREATING AND PREVENTING ASSOCIATED DISORDERS” (Enzene Biosciences Ltd., priority 2019, published 2022)", "tested_on": "MDA-MB-468 cells", "test": "MDA-MB-468 cell viability, CellTiter-Glo, 24 hrs", "assay_type": "cell-based, human", "conditions": "24 hrs incubation", "description": "MDA-MB-468 cells, isolated from a pleural effusion of a patient with metastatic adenocarcinoma of the breast, is a triple negative breast cancer (TNBC) cell line. The IC 50 value of E05 or lapatinib (Sigma) or the structural analogues of E05 were tested in this cell line.\nBriefly, MDA-MB-468 cells (ATCC #HTB-32) were seeded with a density of 5,000 cells per well in a 96 well white plate (Costar Cat #3917) in DMEM media supplemented with 10% FBS (assay medium). The plates were incubated at 37° C., 5% CO2 for 24 hr. E05 and analogues were diluted in the assay medium and added to the respective wells of the assay plate. The plates were further incubated at 37° C., 5% CO2 for 24 hrs. After the incubation, the cell viability was assessed using CellTiter-Glo® and the plates were read for luminescence using Cytation 5 (Biotek). The relative luminescence unit (RLU) obtained was plotted against the concentration and EC50 values were estimated using Graphpad Prism 5 software (FIG. 15 and Table 2).", "data": [{"smiles": "O=C(O)CCc1ccc(O)cc1", "note": "[E05_D, 3-(4-Hydroxyphenyl)-propionic acid (Phloretic acid)]", "values": [{"measurement": "Activity (EC50)", "result": "Inactive"}]}, {"smiles": "Oc1ccccc1O", "note": "[E05_E, 1,2-Dihydroxybenzene (Catechol)]", "values": [{"measurement": "EC50", "setting": "Homo sapiens", "result": 103, "unit": "µM"}]}, {"smiles": "COc1ccc(C(=O)O)cc1O", "note": "[E05_F, 3-Hydroxy-4-methoxy-benzoic acid (Isovamillic acid)]", "values": [{"measurement": "Activity (EC50)", "result": "Inactive"}]}, {"smiles": "COc1cc(C(=O)O)ccc1O", "note": "[E05_G, 4-Hydroxy-3-methoxy-benzoic acid (Vanillic acid)]", "values": [{"measurement": "Activity (EC50)", "result": "Inactive"}]}, {"smiles": "O=C(O)c1ccc(O)cc1O", "note": "[E05_H, 2,4-Dihydroxybenzoic acid]", "values": [{"measurement": "Activity (EC50)", "result": "Inactive"}]}]}
